Measurements published in patent US8536157B2, “Non-steroidal compounds” (The University of Melbourne, priority 2007, dated 2013).

How the values were obtained:
[1] = system: human airway smooth muscle (HASM) cells; assay: Proliferation of human airway smooth muscle cells in response to thrombin (cell counting); format: cell-based; details: given as Log IC50 (negative values), thrombin 0.3 U/ml, 48 h, compound pre-incubated 30 minutes
Description: (§1) 3. Effects of Compounds on the Proliferation of Cells in Response to the Proliferative Stimulus of Either Thrombin (Human Airway Smooth Muscle) or Basic Fibroblast Growth Factor (bFGF)(Human Lung Parenchymal Fibroblasts, pFb)
(§2) The effects of compounds of the present invention on the proliferation of cells in response to the proliferative stimulus of either thrombin (human airway smooth muscle) or basic fibroblast growth factor (bFGF)(human lung parenchymal fibroblasts, pFb) were investigated. Cells were seeded onto 6-well plates at a density of 1.5×10^4 cells cm^2, made quiescent by removal of serum-containing media for 24 hours and then stimulated for 48 h with either thrombin (0.3 U/ml) or bFGF (300 pM). The test compounds were pre-incubated with HASM or pFb cells for 30 minutes before the addition of thrombin. At the end of the 48 hour incubation period, cells were detached from the culture plate by trypsin (0.5% w/v in PBS containing 1 mM EDTA), incubated for 5 minutes at ambient temperature in PBS containing 0.5% (w/v) trypan blue, washed twice (2% FCS in PBS), isolated by centrifugation (12,000×g, 5 min) and resuspended in 200 μl 2% FCS in PBS for counting in a haemocytometer chamber.
Human airway smooth muscle (HASM) cells were cultured from macroscopically normal bronchi (0.5-2 cm diameter) obtained from lung resection or heart-lung transplant specimens provided by the Alfred Hospital (Melbourne) according to methods published in detail previously (Fernandes et al., 1999).
Approximately 0.1 g of smooth muscle was stripped from the wall of the bronchus for each cell culture. Dissected tissue was immersed in Dulbecco's modified Eagle's medium (DMEM) (Flow Laboratories, Scotland), supplemented with 100 U/mL penicillin G (CSL, Australia) and 100 μg/mL streptomycin (CSL, Australia). The tissue was rinsed in phosphate buffered saline (PBS; Oxoid, England) and the airway smooth muscle was chopped into 2 mm^3 pieces and digested for 2 hours in DMEM containing elastase (0.5 mg/mL: Worthington Biochemical, USA) followed by a 12 hour incubation in DMEM containing collagenase (1 mg/mL) (Worthington Biochemical, USA), at 37° C. with agitation.
The resulting cell suspension was centrifuged and washed three times in phosphate buffered saline (PBS). Following the last centrifugation step, the cells were resuspended in 25 mL of DMEM supplemented with L-glutamine (2 mM: Sigma, USA), penicillin G (100 U/mL), streptomycin (100 μg/mL), amphotericin B (2 μg/mL: Wellcome, UK) and heat-inactivated FCS (10% v/v: CSL, Australia) and seeded into 25 cm^2 culture flasks. The primary isolates were incubated for 7 to 14 days to reach confluence. […]

[2] = see WO 2004/101595; cited from earlier work
[3] = system: human lung parenchymal fibroblasts, pFb; assay: Proliferation of human lung parenchymal fibroblasts in response to bFGF (cell counting); format: cell-based; details: Fibroblast, given as Log IC50 (negative values), bFGF 300 pM, 48 h
Description: as §1
as §2, with “chamber. […]” for “chamber.”

[4] = target: proteins in rat lung membranes; assay: Competitive binding assay with [3H]-CP2117 on rat lung membranes (RLM); details: given as Log IC50 (negative values); displacement of 10 nM [3H]-CP2117, overnight at 4° C.; ND- not detected
[5] = system: PGE2 release in J774 macrophages; assay: PGE2 release from LPS/IFNγ-stimulated J774 macrophages (radioimmunoassay); format: cell-based, murine; details: Mus musculus, J774, 24 h, 30 min pre-treatment, 24 hour incubation; for activity at 1 µM: read-out: Effects on PGE2 release in J774 macrophages at 1 μM as a % of LPS/IFNγ control, mean; for activity at 10 µM: l0 μM, read-out: Effects on PGE2 release in J774 macrophages at l0 μM as a % of LPS/IFNγ control, mean
[6] = system: LPS-induced pulmonary inflammation in mice; assay: Model of pulmonary inflammation induced by intra-nasal delivery of LPS; format: in vivo; details: CP933 150 mg/kg ip, dexamethasone 1 mg/kg ip, 2 hours after intranasal LPS
Description: The effect of the compounds of the present invention on BAL cell number, total BAL protein and inflammatory gene expression may be analysed. As an example, female Balb/c mice (17-21 g) may be given a single intraperitoneal (i.p.) injection of vehicle or CP92 (150, 50, 15 and 5 mg/kg in peanut oil DMSO). Two hours after the mice would be anaesthetised with methoxyflurane and a droplet of LPS (1 μg in saline) or sterile saline would be applied to the nose. As the animals breathe through their nose, the LPS or saline would be inhaled and gain access to the lung tissue. Twenty four hours post-LPS administration, mice would be euthanized with a mixture of 200 μl ketamine and 10 μl xylazine i.p., tracheotomised and bronchoalveolar lavage (BAL) performed for the assessment of cell number, cell type and protein content. The lungs would be removed and weighed as an indicator of any adverse effects of the drug treatment. Total RNA would be isolated from the lung tissues for analysis of gene expression (mRNA) using RT-PCR.

Log IC50 RLM binding [4] | SMILES | IC50 [1] | activity at 1 µM [5] | activity at 10 µM [5] | further results
 | CCC(=NOCc1ccc([N+](=O)[O-])cc1)c1ccc(OC)c(O)c1 [CP30221, 3′-Hydroxy-4′-methoxypropiophenone O-4-Nitrobenzyl Oxime] | 2880 nM |  |  | 
 | COc1cc2c(cc1O)C(=NOCc1ccc([N+](=O)[O-])cc1)C[C@@H]1[C@@H]2CC[C@]2(C)[C@@H](O)CC[C@@H]12 [CP-2117, 2-methoxy-6-(4-nitrobenzyloxyimino)estradiol] |  |  |  | anti-inflammatory activity in vitro [2]: anti-inflammatory activity
−6.44 | COc1ccc(/C(C)=N/OCc2ccc([N+](=O)[O-])cc2)cc1O [CP30218, (E)-3′-Hydroxy-4′-methoxyacetophenone O-4-Nitrobenzyl Oxime] | 5890 nM | 218% | 188% | melting point: 105 to 105.7 °C; IC50 [3]: 6.61 nM
 | CCC(=NOCc1ccc([N+](=O)[O-])cc1)c1cc(O)c(OC)cc1I [CP30222, 5′-Hydroxy-2′-iodo-4′-methoxypropiophenone O-4-Nitrobenzyl Oxime] | 8.32 nM |  |  | 
 | COc1cc(I)c(C(C)=NOCc2ccc([N+](=O)[O-])cc2)cc1O [CP30220-minor (Z-), 5′-Hydroxy-2′-iodo-4′-methoxyacetophenone O-4-Nitrobenzyl Oxime] | 38.9 nM |  |  | 
−6.185 | COc1ccc(/C(C)=N/OCc2ccc3nonc3c2)cc1O [CP933, 1-(3-hydroxy-4-methoxyphenyl)ethanone-O-[(benzo[c][1,2,5]oxadiazol-5-yl)methyl]oxime] |  | 109% | 87% | Airspace (pulmonary) neutrophilia ([6]; FIG. 1A): attenuated the airspace neutrophilia; Protein in the broncho-alveolar lavage (BAL) fluid ([6]; FIG. 1B): reduced accumulation of protein
